Patent US11976083B2, “Inhibitors of peptidylarginine deiminases” (Gilead Sciences, Inc., priority 2020, dated 2024)

Target: T1, human PAD4 (Homo sapiens, UniProt Q9UM07)
T1 construct: human PAD4 (NM_012387), A2-P663, was PCR amplified; His-SUMO (N, cleaved yes); made in house; host or cells: E. coli BL21(DE3)
Assay: In vitro PAD4 BAEE biochemical assay
Settings: BAEE substrate 3 mM, 5 nM PAD4, 2 mM calcium chloride; geometric mean of multiple experiments
How it was run: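 Ammonia produced by BAEE deimination (3 mM substrate, 2 h, 25 °C) was read as fluorescent isoindole after o-phthalaldehyde/DTT derivatization, ex 405 nm/em 535 nm. Human PAD4 at 5 nM final, 2 mM calcium, pH 7.6 MOPS; compound preincubated 30 min. IC50s, normalized to BB-Cl-Amidine and DMSO controls, were geometric-mean averaged.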

T1 sequence (Q9UM07 2-663): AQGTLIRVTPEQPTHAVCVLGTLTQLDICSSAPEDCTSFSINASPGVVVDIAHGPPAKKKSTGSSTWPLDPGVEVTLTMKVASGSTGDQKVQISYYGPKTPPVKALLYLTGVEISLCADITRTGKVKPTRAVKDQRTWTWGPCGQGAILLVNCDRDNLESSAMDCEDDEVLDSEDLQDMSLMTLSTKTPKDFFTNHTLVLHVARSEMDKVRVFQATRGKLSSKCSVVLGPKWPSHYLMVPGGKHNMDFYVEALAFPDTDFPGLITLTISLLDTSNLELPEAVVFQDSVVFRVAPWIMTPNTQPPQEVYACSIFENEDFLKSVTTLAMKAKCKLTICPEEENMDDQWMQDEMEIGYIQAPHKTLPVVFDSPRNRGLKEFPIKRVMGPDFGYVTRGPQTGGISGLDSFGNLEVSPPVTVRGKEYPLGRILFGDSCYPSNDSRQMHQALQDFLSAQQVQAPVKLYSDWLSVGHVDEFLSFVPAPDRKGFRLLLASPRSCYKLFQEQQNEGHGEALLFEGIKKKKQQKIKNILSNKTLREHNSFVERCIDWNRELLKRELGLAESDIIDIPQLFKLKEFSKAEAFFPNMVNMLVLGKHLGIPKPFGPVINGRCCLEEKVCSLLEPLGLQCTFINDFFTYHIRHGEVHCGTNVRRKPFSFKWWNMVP

Row | Compound | IC50
1 | COc1cc(C(=O)N[C@H]2CNCC[C@@H]2F)cc2nc(-c3cc4ccc5nc4n3C[C@H]3[C@H](CCCC(C)(C)C(=O)N[C@@H]5C)C3(F)F)n(C)c12 (single isomer, unassigned) [Example 364, 2-[(3˜{R},5˜{S},12˜{R})-4,4-difluoro-9,9,12-trimethyl-10-oxo-1,11,20-triazatetracyclo[11.5.2.0^{3,5}.0^{16,19}]icosa-13(20),14,16(19),17-tetraen-18-yl]-˜{N}-[(3˜{S},4˜{S})-4-fluoro-3-piperidyl]-7-methoxy-1-methyl-benzimidazole-5-carboxamide] | 203 nM
2 | COc1cc(C(=O)N[C@H]2CNCC[C@@H]2F)cc2nc(-c3cc4ccc5nc4n3CCCOC[C@@H]3C[C@H]3C(=O)N[C@@H]5C)n(C)c12 [Example 616, ~{N}-[(3~{S},4~{S})-4-fluoro-3-piperidyl]-7-methoxy-1-methyl-2-[(2~{R},5~{R},7~{R})-2-methyl-4-oxo-9-oxa-3,13,19-triazatetracyclo[11.5.2.0^ {5,7}.0^{16,20}]icosa-1(19),14,16(20), 17-tetraen-14-yl] benzimidazole-5-carboxamide] | 71 nM
3 | COc1cc(C(=O)N2CC[C@@H](OC)[C@@H](N)C2)cc2nc(-c3cc4ccc5nc4n3CCCCCC[C@](C)(C(F)(F)F)C(=O)N[C@@H]5C)n(C)c12 [Example 720, (8~{S},11~{R})-17-[5-[(3~ {S},4~{R})-3-amino-4-methoxy-piperidine-1-carbonyl]-7-methoxy-1-methyl-benzimidazol-2-yl]-8,11-dimethyl-8-(trifluoromethyl)-1,10,19-triazatricyclo[10.5.2.0^ {15,18}]nonadeca-12(19),13,15(18),16-tetraen-9-one] | 65 nM
4 | COc1cc(C(=O)N2CC[C@@H](OC)[C@@H](N)C2)cc2nc(-c3cc4ccc5nc4n3CCCCC[C@H]3C[C@]3(C(F)(F)F)C(=O)N[C@@H]5C)n(C)c12 [Example 636, (2~{R},5~{R},7~{S})-14-[5-[(3~{S},4~{R})-3-amino-4-methoxy-piperidine-1-carbonyl]-7-methoxy-1-methyl-benzimidazol-2-yl]-2-methyl-5-(trifluoromethyl)-3,13,19-triazatetracyclo [11.5.2.0^{5,7}.0^ {16,20}]icosa-1(19), 14,16(20),17-tetraen-4-one] | 52 nM
5 | COc1cc(C(=O)N2CC[C@@H](OC)[C@@H](N)C2)cc2nc(-c3cc4ccc5nc4n3CCCCCCC(C)(C)C(=O)N[C@@H]5C)n(C)c12 [Example 60, (11~{R})-17-[5-[(3~{S},4~{R})-3-amino-4-methoxy-piperidine-1-carbonyl]-7-methoxy-1-methyl-benzimidazol-2-yl]-8,8,11-trimethyl-1,10,19-triazatricyclo[10.5.2.0^{15,18}]nonadeca-12(19),13,15(18),16-tetraen-9-one] | 118 nM
6 | COc1cc(C(=O)N2CCC[C@@H](N)C2)cc2nc(-c3cc4ccc5cc4n3CCCCCCC(=O)Nc3ccccc3-5)n(C)c12 [Example 47, 17-[5-[(3~{R})-3-aminopiperidine-1-carbonyl]-7-methoxy-1-methyl-benzimidazol-2-yl]-8,16-diazatetracyclo[14.5.2.0^{2,7}.0^{19,23}] tricosa-1(22),2,4,6,17,19(23),20-heptaen-9-one] | 458 nM
7 | COc1cc(C(=O)N2C[C@H](N)C[C@H](O)[C@@H]2C)cc2nc(-c3cc4ccc5nc4n3CCCCCCC(C)(C)C(=O)N[C@@H]5C)n(C)c12 [Example 786, (11~{R})-17-[5-[(2~{S},3~ {S},5~{R})-5-amino-3-hydroxy-2-methyl-piperidine-1-carbonyl]-7-methoxy-1-methyl-benzimidazol-2-yl]-8,8,11-trimethyl-1,10,19-triazatricyclo[10.5.2.0^ {15,18}]nonadeca-12,14,16,18-tetraen-9-one] | 237 nM
8 | CO[C@@H]1CCN(C(=O)c2cc(F)c3c(c2)nc(-c2cc4ccc5nc4n2CCCCCC2C[C@H]2C(=O)N[C@@H]5C)n3C2CC2)C[C@@H]1N (stereo partly drawn) [Example 579, (2~{R},5~{R},7~{R})-14-[5-[(3~{S),4~{R})-3-amino-4-methoxy-piperidine-1-carbonyl]-1-cyclopropyl-7-fluoro-benzimidazol-2-yl]-2-methyl-3,13,19-triazatetracyclo [11.5.2.0^{5,7}.0^{16,20}] icosa-1(19),14,16(20), 17-tetraen-4-one] | 50 nM
9 | Cc1cc2c(cc1C(=O)N[C@H]1CNCC[C@@H]1F)nc(-c1cc3ccc4nc3n1CC(F)(F)CCC[C@@H]1C[C@H]1C(=O)N[C@@H]4C)n2C [Example 551, 2-[(2~{R},5~{R},7~ {R})-11,11-difluoro-2-methyl-4-oxo-3,13,19-triazatetracyclo[11.5.2.0^ {5,7).0^{16,20}]icosa-1(19),14,16(20),17-tetraen-14-yl]-~{N}-[(3~ {S},4~{S})-4-fluoro-3-piperidyl]-1,6-dimethyl-benzimidazole-5-carboxamide] | 43 nM
10 | COc1cc(C(=O)N2[C@H]3CC[C@@H]2[C@H](N)C3)cc2nc(-c3cc4ccc5nc4n3CCCCCC(=O)Nc3ncccc3-5)n(C)c12 [Example 92, 16-[5-[(1~{R},2~{R},4~{S})-2-amino-7-azabicyclo[2.2.1]heptane-7-carbonyl]-7-methoxy-1-methyl-benzimidazol-2-yl]-6,8,15,21-tetrazatetracyclo[13.5.2.0^{2,7}.0^{18,22}] docosa-1(21),2(7),3,5,16,18(22),19-heptaen-9-one] | 175 nM

Stronger by IC50, values ahead:

Row | IC50 | Compound
11 | 13 nM | COc1cc(C(=O)N2[C@H]3CC[C@@H]2[C@H](N)C3)cc2nc(-c3cc4ccc5nc4n3CCCCCC(=O)N3CCC[C@H]53)n(C)c12 [Example 128, (2~{R})-14-[5-[(1~{R},2~{R},4~{S})-2-amino-7-azabicyclo[2.2.1]heptane-7-carbonyl]-7-methoxy-1-methyl-benzimidazol-2-yl]-6,13,19-triazatetracyclo[11.5.2.0^{2,6}.0^{16,20}] icosa-1(19),14,16(20),17-tetraen-7-one]
12 | 36 nM | COc1cc(C(=O)N2C[C@H]3CC[C@@H]2[C@@H]3N)cc2nc(-c3cc4ccc5nc4n3CCCCCCCC(=O)N[C@@H]5C)n(C)c12 [Example 288, (11~{R})-17-[5-[(1~{R},4~{R},7~{R})-7-amino-2-azabicyclo[2.2.1]heptane-2-carbonyl]-7-methoxy-1-methyl-benzimidazol-2-yl]-11-methyl-1,10,19-triazatricyclo[10.5.2.0^{15,18}]nonadeca-12(19),13,15(18),16-tetraen-9-one]
13 | 18 nM | (2~{R})-17-[5-[(1~{S}, 4~{R},5~{R})-4-amino-2- azabicyclo[3.2.1]octane-2- carbonyl]-1-cyclopropyl- 7-fluoro-benzimidazol-2-yl]- 6-(difluoromethyl)-2- methyl-3,7,16,22- tetrazatetracyclo[14.5.2.0^ {5,10}.0^{19,23}]tricosa- 1(22),5(10),6,8,17,19(23),20- heptaen-4-one [Example 718]
14 | 13 nM | C[C@H]1NC(=O)[C@@H]2C[C@H]2CCCCCn2c(-c3nc4cc(C(=O)N5C[C@H](N)[C@@H]6CC[C@H]5C6)cc(OC(F)F)c4n3C)cc3ccc1nc32 [Example 763, (2~{R},5~{R},7~{R})-14-[5-[(1~{S},4~{R},5~{R})-4-amino-2-azabicyclo[3.2.1]octane-2-carbonyl]-7-(difluoromethoxy)-1-methyl-benzimidazol-2-yl]-2-methyl-3,13,19-triazatetracyclo[11.5.2.0^ {5,7}.0^{16,20}]icosa-1(19),14,16(20),17-tetraen-4-one]
15 | 37 nM | COc1cc(C(=O)N2[C@H]3CC[C@@H]2[C@H](N)C3)cc2nc(-c3cc4ccc5nc4n3CCCCCCCC(=O)N3C[C@@H]4C[C@@H]4[C@H]53)n(C)c12 [Example 135, (2~{R),3~{S},5~{R})-17-[5-[(1~{R},2~{R},4~{S})-2-amino-7-azabicyclo[2.2.1]heptane-7-carbonyl]-7-methoxy-1-methyl-benzimidazol-2-yl]-7,16,22-triazapentacyclo [14.5.2.0^{2,7}.0^{3,5}.0^{19,23}] tricosa-1(22),17,19(23),20-tetraen-8-one]
16 | 15 nM | COc1cc(C(=O)N2[C@H]3CC[C@@H]2[C@H](N)C3)cc2nc(-c3cc4ccc5nc4n3CCCCCCC(=O)N3CCC[C@H]53)n(C)c12 [Example 131, (2~{R})-15-[5-[(1~{R},2~{R},4~{S})-2-amino-7-azabicyclo[2.2.1]heptane-7-carbonyl]-7-methoxy-1-methyl-benzimidazol-2-yl]-6,14,20-triazatetracyclo[12.5.2.0^{2,6}.0^{17,21}] henicosa-1(20),15,17(21),18-tetraen-7-one]
17 | 16 nM | COc1cc(C(=O)N2CCC[C@@H](N)[C@H]2C)cc2nc(-c3cc4ccc5nc4n3CC(F)(F)CCC[C@@H]3C[C@H]3C(=O)N[C@@H]5C)n(C)c12 [Example 852, (2~{R},5~{R},7~{R})-14-[5-[(2~{R},3~{R})-3-amino-2-methyl-piperidine-1-carbonyl]-7-methoxy-1-methyl-benzimidazol-2-yl]-11,11-difluoro-2-methyl-3,13,19-triazatetracyclo[11.5.2.0^ {5,7).0^{16,20}]icosa-1(19), 14,16(20),17-tetraen-4-one]
18 | 29 nM | Cc1cncc2c1C(=O)N[C@H](C)c1ccc3cc(-c4nc5cc(C(=O)N[C@H]6CNCC[C@@H]6F)c(F)cc5n4C4CC4)n(c3n1)CCCCC2 [Example 395, 1-cyclopropyl-2-[(2~{R})-2,6-dimethyl-4-oxo-3,8,16,22-tetrazatetracyclo[14.5.2.0^{5,10}.0^{19,23}]tricosa-1(22),5(10),6,8,17,19(23),20-heptaen-17-yl]-6-fluoro-~{N}-[(3~{S},4~{S})-4-fluoro-3-piperidyl]benzimidazole-5-carboxamide]
